Laboratory results from patent US12234507B2, “Compositions and methods for targeted masking of autofluorescence” (10x Genomics, Inc., priority 2022, dated 2025).

What was measured:
FFPE human brain tissues [1] = assay: Masking autofluorescence of FFPE human brain tissue with quencher analogues; settings: for background signal compared to unquenched tissues: quencher 1 mM 30 min, 50 mM DTT, all four channels 488, 532, 590, 647 nm (FIGS. 7A-7D); for detected object local mean signal-to-noise ratio: quencher 1 mM, 590 nm and 647 nm (FIGS. 8B, 8C)
Protocol: Formalin-fixed paraffin embedded (FFPE) human brain tissues were treated using the protocol described in Example 1 and further treated using 50 mM DTT for 30 minutes. Next, the tissues were incubated with the quenchers (1 mM) for 30 minutes prior to staining. Staining was performed using nucleic acid probes targeting an anchor sequence which is present within all of the RCPs and targeting epithelial genes-rp1p0, malat1, and actb. The tissues were stained with the quencher compounds 1A, 2A, 1B, 3B, a combination of quenchers 1A and 3B, or a commercial quencher (Table 1, for comparison).

FFPE human brain tissues [2] = assay: Targeted masking of autofluorescence, in situ imaging of FFPE human brain tissue
Protocol: (§1) Formalin-fixed paraffin embedded (FFPE) human brain tissues and fresh frozen (FrF) mouse brain tissues were obtained for this example. The samples were sectioned to 10 μm thickness and transferred to Superfrost® Plus slides. The FFPE human brain tissues were treated multiple times with Histo-Clear® and citrate buffer to remove the embedded paraffin. The FrF mouse brain samples were fixed using 3.7% formaldehyde for 5 minutes. The slides were then incubated with nucleic acid probes targeting genes of interest. The nucleic acid probes were allowed to hybridize overnight in hybridization buffer at 37° C. The next day, the samples were washed using wash buffers to remove excess or unbound probes. The probes were then ligated in the presence of ligase, RNAase inhibitor and ligation buffer for 2 hours. Subsequently, the ligation products were amplified overnight using polymerases and amplification buffers. The samples were then stained using fluorescently labelled probes. Finally, the quenching agent compound 1A was dissolved in DMF (at 18 mM), diluted with 70% ethanol to provide solutions of compound 1A at concentrations of 3.6 mM, 1.8 mM, and 0.9 mM. These solutions were applied to the samples prior to imaging. Once imaged, the fluorescently labelled probes were stripped using a denaturing agent and contacted with additional detectable probes before the next imaging round. In this manner, multiple rounds of stripping, re-probing, and imaging of signals associated with the fluorescently labelled probes, were performed without any additional quenching steps.
To improve the binding of compound 1A to tissue moieties responsible for autofluorescence, the FrF mouse brain tissues were treated with dithiothreitol (DTT, 50 mM) and 2% TEA for 10 minutes before quenching with compound 1A. DTT reduces disulfide bridges in the tissues thereby increasing the thiol content for improved binding of compound 1A. Alternatively, the tissues were treated with a combination of 2,5-dioxopyrrolidin-1-yl 3-oxo-1-(pyridin-2-yldisulfaneyl)-7,10,13,16-tetraoxa-4-azanonadecan-19-oate (PEG4-SPDP), a derivative of succinimidyl 3-(2-pyridyldithio) propionate (SPDP) comprising an internal tetraoligoethylene linker, and DTT, to convert amines to thiols and reduce any disulfide bridges to increase thiol content. For the reduction only treatment, the tissues were treated with DTT (50 mM for 10 minutes). For the conversion of amines to thiols and subsequent reduction, the tissues were treated first with PEG4-SPDP (10 mM) for 10 minutes, followed by treatment with DTT (50 mM) and compound 1A (0.9 mM). PEG4-SPDP is a multifunctional crosslinker for protein conjugation via amine-to-amine or amine-to-sulfhydryl crosslinks that contain a 4-unit polyethylene glycol (PEG) group and a reducible (cleavable) disulfide bond. The tissues were then washed prior to or after staining. […] Results were compared to the tissues incubated with a native thiol targeting group (control group). […] FIGS. 3A and 3C depict the fluorescence for the dentate gyrus and cortex portions prior to quenching, in which punctuate fluorescence signals were associated with rolling circle amplification products, and amorphous background fluorescence was detected.
Further studies were conducted on FFPE human brain tissue that were enriched for binding moieties in the tissue via treatment with DTT or with DTT and PEG4-SPDP. FIG. 5 depicts the signal-to-noise ratio increased post-quenching with DTT/Compound 1A and PEG4-SPDP-DTT/Compound 1A, and was maintained after stripping with DMSO treatment and rehybridization of fluorescent probes.

[3] = test system: fresh frozen (FrF) mouse brain tissues (dentate gyrus, cortex); assay: Targeted masking of autofluorescence, in situ imaging of fresh frozen mouse brain tissue sections
Protocol: as §1
To improve the binding of compound 1A to tissue moieties responsible for autofluorescence, the FrF mouse brain tissues were treated with dithiothreitol (DTT, 50 mM) and 2% TEA for 10 minutes before quenching with compound 1A. DTT reduces disulfide bridges in the tissues thereby increasing the thiol content for improved binding of compound 1A. Alternatively, the tissues were treated with a combination of 2,5-dioxopyrrolidin-1-yl 3-oxo-1-(pyridin-2-yldisulfaneyl)-7,10,13,16-tetraoxa-4-azanonadecan-19-oate (PEG4-SPDP), a derivative of succinimidyl 3-(2-pyridyldithio) propionate (SPDP) comprising an internal tetraoligoethylene linker, and DTT, to convert amines to thiols and reduce any disulfide bridges to increase thiol content. For the reduction only treatment, the tissues were treated with DTT (50 mM for 10 minutes). […] FIGS. 3A and 3C depict the fluorescence for the dentate gyrus and cortex portions prior to quenching, in which punctuate fluorescence signals were associated with rolling circle amplification products, and amorphous background fluorescence was detected.

[4] = test system: FFPE human tonsil tissues; assay: Autofluorescence masking over multiple cycles in FFPE human tonsil tissue
Protocol: Formalin-fixed paraffin embedded (FFPE) human tonsil and liver tissues were obtained for this example. The samples were sectioned to 5 μm thickness and transferred to Superfrost® Plus slides. The samples were treated multiple times with Histo-Clear® and citrate buffer to remove the embedded paraffin and incubated overnight with nucleic acid probes targeting epithelial genes. The next day, the samples were washed with wash buffers to remove excess or unbound probes. The probes were then ligated in the presence of ligase, RNAase inhibitor and ligation buffer for 2 hours. Subsequently, the ligation products were amplified overnight using polymerases and amplification buffers. The samples were then stained using fluorescently labelled probes. Prior to staining, the samples with treated with DTT (1 mM) for 10 minutes and quenchers with different concentrations of the compound 1A (0.1 mM, 0.5 mM, and 0.8 mM). Images of control samples without compound 1A treatment were obtained for comparison. Samples were imaged in two field of views (FOVs) to control for photo bleaching. Once imaged, the fluorescently labelled probes were stripped using a denaturing agent and contacted with additional detectable probes before the next imaging round. In this manner, multiple rounds of stripping, re-probing, and imaging of signals associated with the fluorescently labelled probes, were performed without any additional quenching steps.

[5] = PEG4-SPDP-DTT/Compound 1A (FIG. 5)
[6] = stripping of fluorescently labeled probes and rehybridization

Compound: COc1cc(/N=N/c2ccc([N+](=O)[O-])cc2)c(OC)cc1/N=N/c1ccc(N(C)CCCN2C(=O)C=CC2=O)cc1 [Compound 1A]
- background signal compared to unquenched tissues (FFPE human brain tissues [1]): significant reduction
- detected object local mean signal-to-noise ratio (FFPE human brain tissues [1]): improved
- background in human brain tissues (FFPE human brain tissues [2]): efficiently reduced
- signal to background ratio after 5 cycles of stripping and rehybridizing (FFPE human brain tissues [2]; 488 nm, 590 nm, 532 nm and 647 nm, single quenching application (FIGS. 6A-6D)): maintained
- signal-to-noise ratio after stripping with DMSO and rehybridization of fluorescent probes (FFPE human brain tissues [2]; DTT/Compound 1A (FIG. 5)): maintained
- signal-to-noise ratio post-quenching (FFPE human brain tissues [2]; DTT/Compound 1A (FIG. 5)): increased
- signal-to-noise ratio after stripping with DMSO and rehybridization of fluorescent probes (FFPE human brain tissues [2]; [5]): maintained
- signal-to-noise ratio post-quenching (FFPE human brain tissues [2]; [5]): increased
- retention of quencher on tissues through multiple detection cycles (FFPE human brain tissues [2]; covalently bound, no repeated quenching steps): retained
- autofluorescence quenching effect after stripping (FFPE human brain tissues [2]; [6]): retained
- staining of the tissues with the targeting chemistry ([3]; FrF mouse brain, DTT or PEG4-SPDP/DTT enrichment, compared to native thiol control group): efficiently stain
- background signal ([3]; after stripping with DMSO, treatment with compound 1A and rehybridization with additional probes): significantly reduced
- background in dentate gyrus (DG) and cortex samples ([3]; mouse brain, quenched vs prior to quenching (FIGS. 3A-3D)): efficiently reduced
- autofluorescence quenching effect after stripping [3, 6]: retained
- detected object density ([4]; 0.1, 0.5 and 0.8 mM, 488 nm (FIGS. 10A-10C)): increase
- detected object local signal-to-noise ratio ([4]; 0.1, 0.5 and 0.8 mM, 488 nm (FIGS. 11A-11C)): Increased
- background signal compared to unquenched tonsil tissues ([4]; 0.1, 0.5 and 0.8 mM, 488 nm, cycles 5-7 vs 1-3, multiple cycles of stripping and reprobing (FIGS. 9A-9C)): Significant reduction
- background noise across all four wavelengths measured ([4]; 488, 532, 590, 647 nm (data for additional wavelengths not shown)): reduced background noise was maintained
- signal intensity ([4]; 488 nm, after quenching): reduced
- detected objected signal intensity above local background ([4]; quenched tissue, 488 nm, exposure time increased from 10 ms to 30 ms (FIG. 12)): significantly improved

Compound: COc1cc(/N=N/c2ccc([N+](=O)[O-])cc2)c(OC)cc1/N=N/c1ccc(N(C)CCCC(=O)ON2C(=O)CCC2=O)cc1 [Compound 1B]
- background signal compared to unquenched tissues (FFPE human brain tissues [1]): significant reduction
- detected object local mean signal-to-noise ratio (FFPE human brain tissues [1]): improved

Compound: COc1cc(/N=N/c2c(Cl)cc([N+](=O)[O-])cc2Cl)c(OC)cc1/N=N/c1ccc(N(C)CCCN2C(=O)C=CC2=O)cc1 [Compound 2A]
- background signal compared to unquenched tissues (FFPE human brain tissues [1]): significant reduction
- detected object local mean signal-to-noise ratio (FFPE human brain tissues [1]): improved

Compound: CCN(CC)c1ccc2nc3ccc(/N=N/c4ccc(N(C)CCCC(=O)ON5C(=O)CCC5=O)cc4)cc3[n+](-c3ccccc3)c2c1 [Compound 3B]
- background signal compared to unquenched tissues (FFPE human brain tissues [1]): significant reduction
